Experimental data from US20150361087A1, “ANTIVIRAL COMPOUNDS” (Gilead Sciences, Inc., priority 2014, published 2015).
Read-outs that look alike come from different tables or passages of the source.

Key:
[1] = test system: HCV 1b RLuc replicon cells (genotype 1b Conl replicon); assay: Renilla luciferase HCV replicon reporter assay, genotype 1b; format: cell-based; settings: stable replicon cells, 72 hours, RLuc readout
Protocol: (§1) Evaluation of cell-based anti-HCV activity: Antiviral potency (EC50) was determined using a Renilla luciferase (RLuc)-based HCV replicon reporter assay. To perform the assay for genotype 1 and 2a JFH-1, stable HCV 1a RLuc replicon cells (harboring a dicistronic genotype 1a H77 replicon that encodes a RLuc reporter), stable HCV 1b RLuc replicon cells (harboring a dicistronic genotype 1b Conl replicon that encodes a RLuc reporter), or stable HCV 2a JFH-1 Rluc replicon cells (harboring a dicistronic genotype 2a JFH-1 replicon that encodes a RLuc reporter; with L31 present in NS5A) were dispensed into 384-well plates for EC50 assays. To perform the assay for genotype 2a (with M31 present in NS5A) or 2b, NS5A chimeric genotype 2a JFH-1 replicons that encodes a RLuc-Neo reporter and either genotype 2a J6 strain NS5A gene or genotype 2b MD2b-1 strain NS5A gene (both with M31 present) respectively, were either transiently transfected (t) into Huh-Lunet cells or were established as stably replicating replicon cells (s) is provided. Either cells were dispensed into 384-well plates for EC50 assays. To perform the assay for genotype 3 and 4, NS5A chimeric genotype 1b Conl replicons that encodes a Pi-RLuc reporter and either genotype 3a S52 strain NS5A gene or genotype 4a ED43 strain NS5A gene respectively, were transiently transfected (t) into Huh-Lunet cells, which were subsequently dispensed into 384-well plates. Compounds were dissolved in DMSO at a concentration of 10 mM and diluted in DMSO either manually or using an automated pipeting instrument. Serially 3-fold diluted compounds were either manually mixed with cell culture media and added to the seeded cells or directly added to the cells using an automated instrument. DMSO was used as a negative (solvent; no inhibition) control, and the protease inhibitor ITMN-191 was included at a concentration >100×EC50 as a positive control. 72 hours later, cells were lysed and Renilla luciferase activity quantified as recommended by the manufacturer (Promega-Madison, Wis.). Non-linear regression was performed to calculate EC50 values.

[2] = test system: HCV 1a RLuc replicon cells (genotype 1a H77 replicon); assay: Renilla luciferase HCV replicon reporter assay, genotype 1a; format: cell-based; settings: stable replicon cells, 72 hours, RLuc readout
Protocol: as §1

[3] = test system: HCV 2a JFH-1 Rluc replicon cells (L31 present in NS5A); assay: Renilla luciferase HCV replicon reporter assay, genotype 2a JFH-1; format: cell-based; settings: stable replicon cells, 72 hours
Protocol: as §1

[4] = test system: NS5A chimeric genotype 2a JFH-1 replicon with genotype 2b MD2b-1 strain NS5A gene (M31); assay: Renilla luciferase HCV replicon reporter assay, genotype 2b; format: cell-based
Protocol: as §1

[5] = test system: NS5A chimeric genotype 1b Conl replicon with genotype 3a S52 strain NS5A gene; assay: Renilla luciferase HCV replicon reporter assay, genotype 3a; format: cell-based
Protocol: as §1

[6] = test system: NS5A chimeric genotype 1b Conl replicon with genotype 4a ED43 strain NS5A gene; assay: Renilla luciferase HCV replicon reporter assay, genotype 4a; format: cell-based; settings: Hepatitis C virus, 72 h, read-out: 4a (s) (nM)
Protocol: (§2) Evaluation of cell-based anti-HCV activity: Antiviral potency (EC50) was determined using a Renilla luciferase (RLuc)-based HCV replicon reporter assay. To perform the assay for genotype 1 and 2a JFH-1, stable HCV 1a RLuc replicon cells (harboring a dicistronic genotype 1a H77 replicon that encodes a RLuc reporter), stable HCV 1b RLuc replicon cells (harboring a dicistronic genotype 1b Conl replicon that encodes a RLuc reporter), or stable HCV 2a JFH-1 Rluc replicon cells (harboring a dicistronic genotype 2a JFH-1 replicon that encodes a RLuc reporter; with L31 present in NS5A) were dispensed into 384-well plates for EC50 assays. To perform the assay for genotype 2a (with M31 present in NS5A) or 2b, NS5A chimeric genotype 2a JFH-1 replicons that encodes a RLuc-Neo reporter and either genotype 2a J6 strain NS5A gene or genotype 2b MD2b-1 strain NS5A gene (both with M31 present) respectively, were either transiently transfected (t) into Huh-Lunet cells or were established as stably replicating replicon cells (s) is provided. Either cells were dispensed into 384-well plates for EC50 assays. […] 72 hours later, cells were lysed and Renilla luciferase activity quantified as recommended by the manufacturer (Promega-Madison, Wis.). […]

[7] = test system: Y93H in genotype 1a NS5A (1a Pi-Rluc replicon); assay: Replicon assay against resistance mutant 1a Y93H; format: cell-based, HCV
Protocol: (§3) Evaluation of cell-based anti-HCV activity: Antiviral potency (EC50) was determined using a Renilla luciferase (RLuc)-based HCV replicon reporter assay. To perform the assay for genotype 1 and 2a JFH-1, stable HCV 1a RLuc replicon cells (harboring a dicistronic genotype 1a H77 replicon that encodes a RLuc reporter), stable HCV 1b RLuc replicon cells (harboring a dicistronic genotype 1b Conl replicon that encodes a RLuc reporter), or stable HCV 2a JFH-1 Rluc replicon cells (harboring a dicistronic genotype 2a JFH-1 replicon that encodes a RLuc reporter; with L31 present in NS5A) were dispensed into 384-well plates for EC50 assays. To perform the assay for genotype 2a (with M31 present in NS5A) or 2b, NS5A chimeric genotype 2a JFH-1 replicons that encodes a RLuc-Neo reporter and either genotype 2a J6 strain NS5A gene or genotype 2b MD2b-1 strain NS5A gene (both with M31 present) respectively, were either transiently transfected (t) into Huh-Lunet cells or were established as stably replicating replicon cells (s) is provided. Either cells were dispensed into 384-well plates for EC50 assays. To perform the assay for genotype 3 and 4, NS5A chimeric genotype 1b Conl replicons that encodes a Pi-RLuc reporter and either genotype 3a S52 strain NS5A gene or genotype 4a ED43 strain NS5A gene respectively, were transiently transfected (t) into Huh-Lunet cells, which were subsequently dispensed into 384-well plates. […] 72 hours later, cells were lysed and Renilla luciferase activity quantified as recommended by the manufacturer (Promega-Madison, Wis.). […]
(§4) To determine the antiviral potency (EC50) against resistance mutants, resistance mutations, including Q30R, Q30E, Y93H, and Y93N in genotype 1a NS5A, and L31V/Y93H in genotype 1b NS5A were introduced individually into either 1a Pi-Rluc or 1b Pi-Rluc replicons by site directed mutagenesis. Replicon RNA of each resistant mutant was transiently transfected into Huh-7-derived cured-51 cells and antiviral potency was determined on these transfected cells as described above.

[8] = test system: Y93N in genotype 1a NS5A (1a Pi-Rluc replicon); assay: Replicon assay against resistance mutant 1a Y93N; format: cell-based, HCV
Protocol: as §3, §4

3a Y93H = assay: Replicon assay against resistance mutant 3a Y93H; format: cell-based, HCV
[9] = molecular target: NS5A chimeric genotype 2a JFH-1 replicon with genotype 2a J6 strain NS5A gene (M31); assay: Renilla luciferase HCV replicon reporter assay, genotype 2a J6; format: cell-based; settings: transiently transfected (t) into Huh-Lunet cells, 72 hours
Protocol: as §2

[10] = test system: L31V/Y93H in genotype 1b NS5A (1b Pi-Rluc replicon); assay: Replicon assay against resistance mutant 1b L31V/Y93H; format: cell-based, HCV; settings: transiently transfected Huh-7-derived cured-51 cells
Protocol: (§5) Evaluation of cell-based anti-HCV activity: Antiviral potency (EC50) was determined using a Renilla luciferase (RLuc)-based HCV replicon reporter assay. To perform the assay for genotype 1 and 2a JFH-1, stable HCV 1a RLuc replicon cells (harboring a dicistronic genotype 1a H77 replicon that encodes a RLuc reporter), stable HCV 1b RLuc replicon cells (harboring a dicistronic genotype 1b Conl replicon that encodes a RLuc reporter), or stable HCV 2a JFH-1 Rluc replicon cells (harboring a dicistronic genotype 2a JFH-1 replicon that encodes a RLuc reporter; with L31 present in NS5A) were dispensed into 384-well plates for EC50 assays. […] 72 hours later, cells were lysed and Renilla luciferase activity quantified as recommended by the manufacturer (Promega-Madison, Wis.). […]
as §4

[11] = test system: Q30E in genotype 1a NS5A (1a Pi-Rluc replicon); assay: Replicon assay against resistance mutant 1a Q30E; format: cell-based, HCV; settings: transiently transfected Huh-7-derived cured-51 cells
Protocol: as §5, §4

[12] = set-up: species or system Sprague-Dawley (SD) rats; settings: in vivo
Protocol: IV and PO Single Dose Pharmacokinetic Studies in SD Rats: The pharmacokinetics of selected compounds was characterized in male Sprague-Dawley (SD) rats (250-300 g). In this study, two groups of naïve purebred SD rats (N=3 per group, fasted over night) received the selected compound either as an intravenous (IV) infusion (1 mg/kg over 30 minutes) via the jugular vein or by oral gavage (2 mg/kg). The intravenous (IV) dosing vehicle was 5% ethanol, 35% polyethylene glycol 400 (PEG 400) and 60% water pH 2.0. The oral dosing vehicle was 5% ethanol, 55% PEG 400 and 40% citrate buffer pH 2.2.
Serial blood samples (approximately 0.3 mL each) were collected from jugular vein or other suitable vein at specified time points. […]
A bioanalytical method utilizing high performance liquid chromatography coupled to tandem mass spectrometry (LC/MS/MS) was developed for analysis of the selected compound in rat plasma. Detection was performed using selected reaction monitoring (SRM); Ions representing the precursor (M+H) ^+ species was selected in quadrupole 1 (Q1) and collided with argon gas in the collision cell (Q2) to generate specific product ion, which was subsequently monitored by quadrupole 3 (Q3). Standard curve and quality control samples were prepared in male rat plasma and processed in the same way as the test samples to generate quantitative data. […]

[13] = Hepatitis C virus, 72 h, read-out: 2b (s) (nM)
[14] = Hepatitis C virus, 72 h, read-out: 3a (nM)
[15] = Hepatitis C virus, read-out: 1a Y93H (nM)
[16] = Hepatitis C virus, read-out: 1a Y93N (nM)
[17] = Hepatitis C virus, read-out: 3a Y93H (nM)

SMILES: COC(=O)N[C@H](C(=O)N1CCC[C@H]1c1ncc(-c2cc3c4c(c2)OCc2cc(-c5cnc([C@@H]6CCCN6C(=O)[C@@H](NC(=O)OC)C6C[C@@H](C)O[C@H](C)C6)[nH]5)cc(c2-4)OC3)[nH]1)C1C[C@@H](C)O[C@H](C)C1 (stereo partly drawn) [Compound 15, dimethyl ((1S,1′S)-((2S,2′S)-((5,10-dihydrochromeno [5,4,3-cde]chromene-2,7-diyl)bis(1H-imidazole-5,2-diyl))bis(pyrrolidine-2,1-diyl))bis(1-((2R,6R)-2,6-dimethyltetrahydro-2H-pyran-4-yl)-2-oxoethane-2,1-diyl))dicarbamate]
- EC50 ([1]; Hepatitis C virus): 0.195 nM
- EC50 ([2]; Hepatitis C virus): 0.18 nM
- EC50 ([3]; Hepatitis C virus): 0.024 nM
- EC50 [4, 13]: 0.143 nM
- EC50 [5, 14]: 0.199 nM
- EC50 [6]: 0.07 nM
- EC50 [7, 15]: 0.237 nM
- EC50 [8, 16]: 0.87 nM
- EC50 (3a Y93H; [17]): 0.361 nM

SMILES: COC(=O)N[C@H](C(=O)N1[C@@H](C)CC[C@H]1c1ncc(-c2cc3c4c(c2)OCc2cc(-c5cnc([C@@H]6CC[C@H](C)N6C(=O)[C@@H](NC(=O)OC)C6C[C@@H](C)O[C@H](C)C6)[nH]5)cc(c2-4)OC3)[nH]1)C1C[C@@H](C)O[C@H](C)C1 (stereo partly drawn) [Compound 14, dimethyl (R,R,1S,1′S)-2,2′-((2S,2′S,5S,5′S)-5,5′-(5,5′-(5,10-dihydrochromeno[5,4,3-cde]chromene-2,7-diyl)bis(1H-imidazole-5,2-diyl))bis(2-methylpyrrolidine-5,1-diyl))bis(1-((2R,6R)-2,6-dimethyltetrahydro-2H-pyran-4-yl)-2-oxoethane-2,1-diyl)dicarbamate]
- EC50 [1]: 0.054 nM
- EC50 [2]: 0.049 nM
- EC50 [3]: 0.011 nM
- EC50 [9]: 0.014 nM
- EC50 ([4]; transiently transfected (t) into Huh-Lunet cells, 72 hours, read-out: 2b (t)): 0.038 nM
- EC50 ([5]; transiently transfected into Huh-Lunet cells, 72 hours, read-out: 3a): 0.04 nM
- EC50 [10]: 0.075 nM
- EC50 [11]: 0.11 nM
- EC50 ([7]; transiently transfected Huh-7-derived cured-51 cells, read-out: 1a Y93H): 0.063 nM
- EC50 ([8]; transiently transfected Huh-7-derived cured-51 cells, read-out: 1a Y93N): 0.229 nM
- EC50 (3a Y93H; resistance mutant replicon, read-out: 3a Y93H): 0.157 nM
- Rat % F [12]: 15%

SMILES: COC(=O)N[C@H](C(=O)N1[C@@H](C)CC[C@H]1c1ncc(-c2cc3c4c(c2)OCc2cc(-c5cnc([C@@H]6CC[C@H](C)N6C(=O)[C@@H](NC(=O)OC)[C@H]6C[C@@H](C)O[C@@H](C)C6)[nH]5)cc(c2-4)OC3)[nH]1)C1C[C@@H](C)O[C@@H](C)C1 (stereo partly drawn) [Compound 16, dimethyl (r,S,R,1S,1′S)-2,2′-((2S,2′S,5S,5′S)-5,5′-(5,5′-(5,10-dihydrochromeno[5,4,3-cde]chromene-2,7-diyl)bis(1H-imidazole-5,2-diyl))bis(2-methylpyrrolidine-5,1-diyl))bis(1-((2R,4r,6S)-2,6-dimethyltetrahydro-2H-pyran-4-yl)-2-oxoethane-2,1-diyl)dicarbamate]
- EC50 ([1]; Hepatitis C virus): 0.037 nM
- EC50 ([2]; Hepatitis C virus): 0.043 nM
- EC50 ([3]; Hepatitis C virus): 0.013 nM
- EC50 [4, 13]: 0.054 nM
- EC50 [5, 14]: 0.051 nM
- EC50 [6]: 0.025 nM
- EC50 [7, 15]: 0.356 nM
- EC50 [8, 16]: 0.685 nM
- EC50 (3a Y93H; [17]): 0.145 nM
